In patent US20220275274A1, “NEUTRAL FLUORESCENT MITOCHONDRIAL MARKER BASED ON NITROGEN-CONTAINING HETEROCYCLE, PREPARATION METHOD AND USE THEREOF” (SOOCHOW UNIVERSITY, priority 2020, published 2022):

What was measured:
[1] = system: HeLa cells; assay: cell imaging, colocalization with green mitochondrial marker Mito Tracker Green FM; assay type: cell-based; conditions: dye 1 μM, vs Mito Tracker Green FM (100 nm), red and green channel
Experimental: (§1) Dye 3a was formulated into a mother liquor in DMSO (dimethyl sulfoxide), and then added to a conventional cell culture medium to give a concentration of dye 3a in the cell culture medium of 1 μM. L929 cells and HeLa cells were respectively co-cultured for 10 min in an incubator at saturated humidity, 37° C., and 5% CO2 (the experiment was same below). The existing green mitochondrial marker Mito Tracker® Green FM (100 nm) was added, and the cells were co-incubated for another 10 min, washed three times with a PBS buffer, and imaged under a laser confocal microscope. In the red channel, light of 561 nm was used for excitation, and a fluorescence signal in the range of 570-750 nm was collected. In the green channel, light of 488 nm was used for excitation, and a fluorescence signal in the range of 500-550 nm was collected. […] The results are shown in FIG. 20, where (a) and (g) are the bright-field images; (b) and (h) are the cell images with dye 3a; (c) and (i) are the cell images with the green mitochondrial marker; (d) and (j) are overlapped images with red channel and green channel, (e) and (k) show the fluorescence intensity of the ROI line in the overlapped images; and (f) and (1) show colocalization assays, with a colocalization coefficient of 0.91 (L929) and 0.90 (HeLa) respectively.
(§2) The experiment method with dye 3b (1 μM) and dye 3c (1 μM) is the same as that with dye 3a above, except that dye 3a is replaced. […] In FIG. 21, (a) and (g) are the bright-field images; (b) and (h) are the cell images with dye 3b; (c) and (i) are the cell images with the green mitochondrial marker; (d) and (j) are overlapped images with red channel and green channel, (e) and (k) show the fluorescence intensity of the ROI line in the overlapped images; and (f) and (1) show colocalization assays, with a colocalization coefficient of 0.88 (L929) and 0.90 (HeLa) respectively. In FIG. 22, (a) and (g) are the bright-field images; (b) and (h) are the cell images with dye 3c; (c) and (i) are the cell images with the green mitochondrial marker; (d) and (j) are overlapped images with red channel and green channel, (e) and (k) show the fluorescence intensity of the ROI line in the overlapped images; and (f) and (1) show colocalization assays, with a colocalization coefficient of 0.89 (L929) and 0.87 (HeLa) respectively.
(§3) Dye 3d was formulated into a mother liquor in DMSO (dimethyl sulfoxide), and then added to a conventional cell culture medium to give a concentration of dye 3d in the cell culture medium of 1 μM. L929 cells and HeLa cells were respectively co-cultured for 10 min in an incubator at saturated humidity, 37° C., and 5% CO2. Then the green mitochondrial marker Mito Tracker® Green FM (100 nm) and a green lipid droplet marker were added (the synthesis is as described in CHen, Y.; Wei, X. R.; Sun, R.; Xu, Y. J.; Ge, J. F. Org Biomol CHem 2018, 16, 7619.). The cells were co-incubated for another 10 min, washed three times with a PBS buffer, and imaged under a laser confocal microscope. In the red channel, light of 561 nm was used for excitation, and a fluorescence signal in the range of 570-750 nm was collected. In the green channel, light of 488 nm was used for excitation, and a fluorescence signal in the range of 500-550 nm was collected. […] The results are shown in FIG. 23, where (a) and (f) are the bright-field images, (b) and (g) are the cell images with dye 3d, (c) is the cell image with the green lipid droplet marker, (h) is the cell image with the green mitochondrial marker, (d) and (i) are overlapped images with red channel and green channel, and (e) and (j) show the fluorescence intensity of the ROI line in the overlapped images. […]

[2] = system: L929 cells; assay: as above; assay type: cell-based; conditions: dye 1 μM; for mitochondria labeling ability (red mitochondrial marker): L929 (normal) and HeLa (cancer) cells, vs Mito Tracker Green FM; for colocalization coefficient: L929 cells, vs Mito Tracker Green FM (100 nm), red and green channel
Experimental: as §1, §2, §3

[3] = ultraviolet absorption and fluorescence emission in chloroform; assay type: physicochemical; conditions: 10 μM; for maximum emission wavelength (fluorescence spectrum): excitation wavelength and slit width per dye
Experimental: The ultraviolet absorption and fluorescence emission of the dyes prepared in the examples and comparative examples (at a concentration of 10 μM) in chloroform were tested. The horizontal ordinate is the wavelength, and the vertical ordinate is the absorbance and fluorescence intensity, respectively.
In the ultraviolet-visible absorption spectrum, dye 1a has the maximum absorption at 378 nm; and in the fluorescence spectrum, dye 1a has the highest fluorescence intensity at 452 nm, where the excitation wavelength is 370 nm, and the slit width is 3 nm/1.5 nm. In the ultraviolet-visible absorption spectrum, dye 1b has a maximum absorption wavelength of 382 nm; and in the fluorescence spectrum, dye 1b has a maximum emission wavelength of 485 nm, where the excitation wavelength is 374 nm, and the slit width is 3 nm/1.5 nm. In the ultraviolet-visible absorption spectrum, dye 1c has a maximum absorption wavelength of 385 nm; and in the fluorescence spectrum, dye 1c has a maximum emission wavelength of 454 nm, where the excitation wavelength is 380 nm, and the slit width is 3 nm/1.5 nm. In the ultraviolet-visible absorption spectrum, dye 2a has the maximum absorption at 364 nm; and in the fluorescence spectrum, dye 2a has the highest fluorescence intensity at 480 nm, where the excitation wavelength is 374 nm, and the slit width is 3 nm/1.5 nm. In the ultraviolet-visible absorption spectrum, dye 2b has a maximum absorption wavelength of 360 nm; and in the fluorescence spectrum, dye 2b has a maximum emission wavelength of 458 nm, where the excitation wavelength is 370 nm, and the slit width is 3 nm/1.5 nm. In the ultraviolet-visible absorption spectrum, dye 2c has a maximum absorption wavelength of 356 nm; and in the fluorescence spectrum, dye 2c has a maximum emission wavelength of 441 nm, where the excitation wavelength is 360 nm, and the slit width is 3 nm/3 nm. In the ultraviolet-visible absorption spectrum, dye 3a has the maximum absorption at 548 nm; and in the fluorescence spectrum, dye 3a has the highest fluorescence intensity at 606 nm, where the excitation wavelength is 560 nm, and the slit width is 1.5 nm/1.5 nm. In the ultraviolet-visible absorption spectrum, dye 3b has a maximum absorption wavelength of 549 nm; and in the fluorescence spectrum, dye 3b has a maximum emission wavelength of 608 nm, where the excitation wavelength is 540 nm, and the slit width is 1.5 nm/1.5 nm. In the ultraviolet-visible absorption spectrum, dye 3c has a maximum absorption wavelength of 554 nm; and in the fluorescence spectrum, dye 3c has a maximum emission wavelength of 611 nm, where the excitation wavelength is 540 nm, and the slit width is 1.5 nm/1.5 nm. In the ultraviolet-visible absorption spectrum, dye 3d has a maximum absorption wavelength of 556 nm; and in the fluorescence spectrum, dye 3d has a maximum emission wavelength of 619 nm, where the excitation wavelength is 570 nm, and the slit width is 1.5 nm/1.5 nm. In the ultraviolet-visible absorption spectrum, dye 4 has a maximum absorption wavelength of 501 nm; and in the fluorescence spectrum, dye 4 has a maximum emission wavelength of 515 nm, where the excitation wavelength is 495 nm, and the slit width is 1.5 nm/1.5 nm. The above UV absorption and fluorescence emission test methods are conventional methods.

Compound | colocalization coefficient [1] | mitochondria labeling ability (red mitochondrial marker) [2] | colocalization coefficient [2] | maximum absorption wavelength (ultraviolet-visible absorption spectrum) [3] | maximum emission wavelength (fluorescence spectrum) [3] | organelles marked ([2]; L929 and HeLa cells, vs Mito Tracker Green FM and a green lipid droplet marker)
CCN(CC)c1ccc2nc3c4ccc(-c5ccc6[nH]ncc6c5)cc4c(=O)cc-3oc2c1 [dye 3a] | 0.90 | mitochondria labeling ability in both normal cells and cancer cells | 0.91 | 548 nm | 606 nm | 
CCN(CC)c1ccc2nc3c4ccc(-c5cnc6[nH]ccc6c5)cc4c(=O)cc-3oc2c1 [dye 3b] | 0.90 | mitochondria labeling ability in both normal cells and cancer cells | 0.88 | 549 nm | 608 nm | 
CCN(CC)c1ccc2nc3c4ccc(-c5cnc6[nH]ncc6c5)cc4c(=O)cc-3oc2c1 [dye 3c] | 0.87 | mitochondria labeling ability in both normal cells and cancer cells | 0.89 | 554 nm | 611 nm | 
CCN(CC)c1ccc2nc3c4ccc(-c5ccc6nccnc6c5)cc4c(=O)cc-3oc2c1 [dye 3d] |  |  |  | 556 nm | 619 nm | simultaneously mark two organelles, i.e. mitochondria and lipid droplets
